Assay [1] concerns the target recombinant human estradiol receptors (rhER) beta 1 (β1) (Homo sapiens, UniProt Q92731). In words: competitive radioligand binding assay, rhER beta 1. Particulars: at as high as […]10^−4 molar concentration.
The target of assay [2] is T1, recombinant human estradiol receptors (rhER) alpha (α) (Homo sapiens, UniProt P03372).
T1 sequence (P03372 1-595): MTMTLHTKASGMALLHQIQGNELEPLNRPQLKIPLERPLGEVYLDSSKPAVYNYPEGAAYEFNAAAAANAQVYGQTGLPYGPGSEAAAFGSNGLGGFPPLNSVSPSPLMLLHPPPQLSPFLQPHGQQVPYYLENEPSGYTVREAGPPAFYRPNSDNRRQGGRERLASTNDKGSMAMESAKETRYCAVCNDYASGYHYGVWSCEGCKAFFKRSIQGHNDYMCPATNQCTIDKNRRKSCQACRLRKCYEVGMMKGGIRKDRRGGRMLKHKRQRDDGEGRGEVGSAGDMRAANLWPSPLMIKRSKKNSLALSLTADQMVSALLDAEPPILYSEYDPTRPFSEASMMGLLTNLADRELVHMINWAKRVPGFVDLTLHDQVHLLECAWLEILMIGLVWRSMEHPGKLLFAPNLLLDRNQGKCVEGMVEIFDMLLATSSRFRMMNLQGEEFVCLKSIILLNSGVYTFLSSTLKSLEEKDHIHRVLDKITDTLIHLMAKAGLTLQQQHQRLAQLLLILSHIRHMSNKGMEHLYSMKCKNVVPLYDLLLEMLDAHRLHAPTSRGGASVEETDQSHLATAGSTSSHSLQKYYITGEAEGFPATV
The assay is described as follows: competitive radioligand binding assay, rhER alpha. Particulars: at as high as […]10^−4 molar concentration.

For the compound `O=C1c2ccccc2C(c2ccc(O)cc2)(c2ccc(O)cc2)N1c1ccccc1` [Example 4, N-Phenyl Phenolphthalein Bisphenol], the “estradiol displacement at the beta estradiol receptor” value in assay [1] was “no detectible estradiol displacement”. Besides, the “estradiol displacement at the alpha estradiol receptor” value in assay [2] is “no detectible estradiol displacement”.

Take `Oc1cccc(O)c1` [Example 5, Resorcinol]: the “estradiol displacement at the beta estradiol receptor” value in assay [1] is listed as “no detectible estradiol displacement”. In assay [2], the “estradiol displacement at the alpha estradiol receptor” value is listed as “no detectible estradiol displacement”.

In the case of `CC(C)(C)c1cc(O)c(C(C)(C)C)cc1O` [Example 8, Di t-Butyl Hydroquinone], the “estradiol displacement at the beta estradiol receptor” value in assay [1] is given as “no displacement”. The “estradiol displacement at the alpha estradiol receptor” value in assay [2] is recorded as “no displacement”.

With `Cc1cc(O)ccc1O` [Example 9, Methyl Hydroquinone], the “estradiol displacement at the beta estradiol receptor” value in assay [1] is on record as “no alpha or beta estradiol displacement”.

For the compound Biphenol [Example 7], in assay [2], the “estradiol displacement at the alpha estradiol receptor” value was “no displacement”.

Source of the values: patent publication US20130052381A1, “POLYEPOXIDES AND EPOXY RESINS AND METHODS FOR THE MANUFACTURE AND USE THEREOF” (priority 2011, published 2013).
